What was measured:
[1] = target: Beta-galactosidase (Escherichia coli) (UniProt Q8VNN2); assay: Compound was evaluated for the percentage inhibition of beta-galactosidase enzyme from Escherichia coli at the concentration of 1 mM
[2] = tested on: Beta-galactosidase (Canavalia ensiformis); assay: Compound was evaluated for the percentage inhibition of beta-galactosidase enzyme from jack bean at the concentration of 1 mM
Beta-galactosidase = Beta-galactosidase (Escherichia coli, UniProt Q8VNN2); assay: Concentration required to inhibit beta-galactosidase enzyme by 50% from Escherichia coli was reported
Sequence of Beta-galactosidase (Q8VNN2 whole entry): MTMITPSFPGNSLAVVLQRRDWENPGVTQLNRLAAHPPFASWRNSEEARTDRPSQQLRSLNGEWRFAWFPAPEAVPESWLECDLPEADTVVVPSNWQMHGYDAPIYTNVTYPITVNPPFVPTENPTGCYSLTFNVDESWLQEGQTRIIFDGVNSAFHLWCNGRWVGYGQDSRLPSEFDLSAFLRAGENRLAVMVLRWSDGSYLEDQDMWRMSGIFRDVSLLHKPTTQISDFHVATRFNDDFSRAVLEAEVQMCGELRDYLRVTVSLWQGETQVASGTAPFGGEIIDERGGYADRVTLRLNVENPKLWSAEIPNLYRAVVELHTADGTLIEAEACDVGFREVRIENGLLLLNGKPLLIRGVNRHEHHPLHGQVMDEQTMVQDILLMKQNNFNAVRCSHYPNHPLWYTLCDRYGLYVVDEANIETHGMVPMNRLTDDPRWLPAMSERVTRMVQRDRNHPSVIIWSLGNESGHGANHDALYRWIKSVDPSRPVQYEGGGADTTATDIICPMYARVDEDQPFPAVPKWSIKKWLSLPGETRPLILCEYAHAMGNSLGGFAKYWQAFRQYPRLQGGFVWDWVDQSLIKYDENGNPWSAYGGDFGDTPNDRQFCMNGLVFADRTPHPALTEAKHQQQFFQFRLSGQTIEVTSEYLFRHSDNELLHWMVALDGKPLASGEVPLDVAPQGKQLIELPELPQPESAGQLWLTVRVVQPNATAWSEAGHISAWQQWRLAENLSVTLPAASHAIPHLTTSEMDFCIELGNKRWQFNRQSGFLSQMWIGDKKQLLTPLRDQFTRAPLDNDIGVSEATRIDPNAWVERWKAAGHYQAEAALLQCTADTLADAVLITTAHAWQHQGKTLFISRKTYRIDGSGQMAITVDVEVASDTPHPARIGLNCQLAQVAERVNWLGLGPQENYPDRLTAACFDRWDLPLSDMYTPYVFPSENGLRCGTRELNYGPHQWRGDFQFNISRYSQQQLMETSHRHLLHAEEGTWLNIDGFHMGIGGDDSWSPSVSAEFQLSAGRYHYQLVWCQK

Sequence of Beta-galactosidase (Escherichia coli) (Q8VNN2 whole entry, looked up): as the sequence (Q8VNN2 whole entry) above

inhibition [1]: 86% | inhibition [2]: 92% | IC50 (Beta-galactosidase): 500 µM
Compound: CC(=O)N[C@@H]1C(O)O[C@H](CO)[C@H](O)[C@@H]1C[C@H]1O[C@H](CO)[C@@H](O)[C@H](O)[C@@H]1O.CC(=O)N[C@H]1C(O)O[C@H](C(O)CO)[C@@H]1C[C@H]1O[C@H](CO)[C@@H](O)[C@H](O)[C@@H]1O (stereo partly drawn)
